Where “and” joins values, the source holds several entries; their conditions need not be identical. Equal entries are not always repeated. Toxic doses and inconclusive results are not listed. Rule for the calls: active = survival T/C of 150% or more; inactive = T/C below 125% in these data.
Test system: P388 leukemia ip, CD2F1 mice, survival T/C
Assay: NCI In Vivo Anticancer Drug Screen. Data for tumor model P388 Leukemia (intraperitoneal) in CD2F1 (CDF1) mice
Details: endpoint: median survival time, higher = longer survival
How it was run: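 Mice carrying the transplanted tumor received test compound or vehicle. Survival was recorded in each group, and the value is the treated-group measurement divided by that of the vehicle-treated control group.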

[1] = dose: 50.0 mg/kg/injection, schedule: Q01DX009 (ip), vehicle: Klucel (hydroxypropylcellulose) (HPC)
[2] = dose: 15.0 mg/kg/injection, schedule: Q01DX005 (ip), vehicle: saline with Tween-80
[3] = dose: 30.0 mg/kg/injection, schedule: Q01DX005 (ip), vehicle: saline with Tween-80
[4] = dose: 60.0 mg/kg/injection, schedule: Q01DX005 (ip), vehicle: saline with Tween-80
[5] = dose: 120.0 mg/kg/injection, schedule: Q01DX005 (ip), vehicle: saline with Tween-80
[6] = dose: 50.0 mg/kg/injection, schedule: Q01DX009 (ip), vehicle: saline with Tween-80
[7] = dose: 100.0 mg/kg/injection, schedule: Q01DX009 (ip), vehicle: saline with Tween-80
[8] = dose: 200.0 mg/kg/injection, schedule: Q01DX009 (ip), vehicle: saline with Tween-80
[9] = dose: 12.5 mg/kg/injection, schedule: Q01DX009 (ip), vehicle: Klucel (hydroxypropylcellulose) (HPC)
[10] = dose: 25.0 mg/kg/injection, schedule: Q01DX009 (ip), vehicle: Klucel (hydroxypropylcellulose) (HPC)
[11] = dose: 12.5 mg/kg/injection, schedule: Q01DX009 (ip), vehicle: saline with Tween-80
[12] = dose: 25.0 mg/kg/injection, schedule: Q01DX009 (ip), vehicle: saline with Tween-80
[13] = dose: 240.0 mg/kg/injection, schedule: Q01DX005 (ip), vehicle: saline with Tween-80
[14] = dose: 25.0 mg/kg/injection, schedule: Q01DX005 (ip), vehicle: saline with Tween-80
[15] = dose: 50.0 mg/kg/injection, schedule: Q01DX005 (ip), vehicle: saline with Tween-80
[16] = dose: 50.0 mg/kg/injection, schedule: Q01DX005 (ip), vehicle: Klucel (hydroxypropylcellulose) (HPC)
[17] = dose: 100.0 mg/kg/injection, schedule: Q01DX005 (ip), vehicle: Klucel (hydroxypropylcellulose) (HPC)
[18] = dose: 200.0 mg/kg/injection, schedule: Q01DX005 (ip), vehicle: Klucel (hydroxypropylcellulose) (HPC)

Measured: T/C

C(C#CCN1CCOCC1)#CCN1CCOCC1
inactive: [1] 109 % of control and 89 % of control | dose: 100.0 mg/kg/injection, schedule: Q01DX009 (ip), vehicle: Klucel (hydroxypropylcellulose) (HPC) 101 % of control and 89 % of control | dose: 200.0 mg/kg/injection, schedule: Q01DX009 (ip), vehicle: Klucel (hydroxypropylcellulose) (HPC) 101 % of control and 93 % of control | dose: 400.0 mg/kg/injection, schedule: Q01DX009 (ip), vehicle: Klucel (hydroxypropylcellulose) (HPC) 98 % of control

COc1cc(C2c3cc4c(cc3OC(O)C2C)OCO4)cc(OC)c1OC (stereo unspecified)
inactive: [2] 99 % of control | [3] 101 % of control | [4] 99 % of control and 112 % of control | [5] 117 % of control

COc1cc2nc3occc3c(OC)c2cc1OCC(O)C(C)(C)O (stereo unspecified)
inactive: dose: 12.5 mg/kg/injection, schedule: Q01DX005 (ip), vehicle: distilled water + Tween-80 91 % of control | dose: 25.0 mg/kg/injection, schedule: Q01DX005 (ip), vehicle: distilled water + Tween-80 98 % of control

Cc1nn(-c2ccc(Cl)cc2)c2nc(N)nc(N)c12
inactive: dose: 6.25 mg/kg/injection, schedule: Q04DX002 (ip), vehicle: Klucel (hydroxypropylcellulose) (HPC) 92 % of control | dose: 12.5 mg/kg/injection, schedule: Q04DX002 (ip), vehicle: Klucel (hydroxypropylcellulose) (HPC) 89 % of control and 93 % of control | dose: 25.0 mg/kg/injection, schedule: Q04DX002 (ip), vehicle: Klucel (hydroxypropylcellulose) (HPC) 92 % of control | dose: 50.0 mg/kg/injection, schedule: Q04DX002 (ip), vehicle: Klucel (hydroxypropylcellulose) (HPC) 89 % of control | dose: 100.0 mg/kg/injection, schedule: Q04DX002 (ip), vehicle: Klucel (hydroxypropylcellulose) (HPC) 105 % of control | dose: 200.0 mg/kg/injection, schedule: Q04DX002 (ip), vehicle: Klucel (hydroxypropylcellulose) (HPC) 115 % of control | dose: 400.0 mg/kg/injection, schedule: Q04DX002 (ip), vehicle: Klucel (hydroxypropylcellulose) (HPC) 113 % of control

COc1cccc(N)c1N
inactive: dose: 25.0 mg/kg/injection, schedule: Q01DX009 (ip), vehicle: saline 99 % of control | dose: 25.0 mg/kg/injection, schedule: Q01DX009 (ip), vehicle: suspension in saline 103 % of control | dose: 50.0 mg/kg/injection, schedule: Q01DX009 (ip), vehicle: saline 100 % of control | dose: 50.0 mg/kg/injection, schedule: Q01DX009 (ip), vehicle: suspension in saline 106 % of control | dose: 100.0 mg/kg/injection, schedule: Q01DX009 (ip), vehicle: saline 106 % of control | dose: 100.0 mg/kg/injection, schedule: Q01DX009 (ip), vehicle: suspension in saline 107 % of control | dose: 200.0 mg/kg/injection, schedule: Q01DX009 (ip), vehicle: saline 96 % of control | dose: 200.0 mg/kg/injection, schedule: Q01DX009 (ip), vehicle: suspension in saline 91 % of control

CCCCCCOCN(COCCCCCC)c1ccc(Cl)cc1
inactive: [6] 102 % of control | [7] 109 % of control | [8] 118 % of control

Cc1ccc(S(=O)(=O)C(=S)N(C)N(C)C)cc1
inactive: [9] 115 % of control | [10] 117 % of control

c1ccc(C[N+]23CC[N+](Cc4ccccc4)(CC2)CC3)cc1
inactive: dose: 50.0 mg/kg/injection, schedule: Q04DX003 (ip), vehicle: saline 95 % of control | dose: 100.0 mg/kg/injection, schedule: Q04DX003 (ip), vehicle: saline 108 % of control | dose: 200.0 mg/kg/injection, schedule: Q04DX003 (ip), vehicle: saline 95 % of control

CC(C)N1C(=O)C(C#N)=C(c2ccccc2)SC1c1ccccc1 (stereo unspecified)
inactive: dose: 3.13 mg/kg/injection, schedule: Q01DX009 (ip), vehicle: saline with Tween-80 104 % of control | dose: 6.25 mg/kg/injection, schedule: Q01DX009 (ip), vehicle: saline with Tween-80 101 % of control | [11] 106 % of control | [6] 94 % of control | [7] 99 % of control

Cc1ccc(C(=O)N=[N+]=[N-])o1
inactive: [11] 98 % of control | [12] 100 % of control | [6] 100 % of control

C[n+]1nnn(/N=C\c2ccccc2)c1N
inactive: [9] 100 % of control | [10] 97 % of control | [1] 104 % of control

Cc1ccnc(NC(=O)Nc2cc(F)ccc2F)c1
inactive: [3] 87 % of control | [4] 87 % of control and 89 % of control | [5] 101 % of control | [13] 87 % of control

CCC1(CC)CCC(C(=O)OC)/C1=N\Nc1ccc([N+](=O)[O-])cc1[N+](=O)[O-] (stereo unspecified)
inactive: dose: 100.0 mg/kg/injection, schedule: Q01DX001 (ip), vehicle: Klucel (hydroxypropylcellulose) (HPC) 102 % of control | dose: 200.0 mg/kg/injection, schedule: Q01DX001 (ip), vehicle: Klucel (hydroxypropylcellulose) (HPC) 98 % of control | dose: 400.0 mg/kg/injection, schedule: Q01DX001 (ip), vehicle: Klucel (hydroxypropylcellulose) (HPC) 100 % of control

Cc1ccc(OCC2CO2)c(Br)c1 (stereo unspecified)
inactive: [14] 101 % of control and 104 % of control | [15] 100 % of control and 106 % of control (2×) | dose: 100.0 mg/kg/injection, schedule: Q01DX005 (ip), vehicle: saline with Tween-80 101 % of control and 96 % of control | dose: 200.0 mg/kg/injection, schedule: Q01DX005 (ip), vehicle: saline with Tween-80 101 % of control and 105 % of control and 111 % of control

COc1c2c(c(Cc3c4c(c(OC)c5c3OCO5)OC(C)C4)c3c1OCO3)CC(C)O2 (stereo unspecified)
inactive: dose: 12.5 mg/kg/injection, schedule: Q01DX005 (ip), vehicle: saline with Tween-80 96 % of control | [14] 94 % of control | [15] 89 % of control and 95 % of control

COCc1cnc2nc(N)nc(N)c2n1
inactive: dose: 0.39 mg/kg/injection, schedule: Q01DX009 (ip), vehicle: distilled water + Tween-80 99 % of control | dose: 0.78 mg/kg/injection, schedule: Q01DX009 (ip), vehicle: distilled water + Tween-80 99 % of control | dose: 1.56 mg/kg/injection, schedule: Q01DX009 (ip), vehicle: distilled water + Tween-80 104 % of control | dose: 3.13 mg/kg/injection, schedule: Q01DX009 (ip), vehicle: distilled water + Tween-80 110 % of control

OCNC(=S)c1c(Cl)cccc1Cl
inactive: [12] 111 % of control | [6] 111 % of control | [7] 109 % of control | [8] 100 % of control

O=C(Cc1ccc(OCc2ccccc2)cc1)NCc1ccc2c(c1)OCO2
inactive: [2] 96 % of control | [3] 91 % of control | [4] 89 % of control

O=c1c2[nH]c3ccccc3sc=2c(=O)n1-c1ccc(Cl)c(Cl)c1Cl
inactive: dose: 100.0 mg/kg/injection, schedule: Q04DX002 (ip), vehicle: saline with Tween-80 100 % of control | dose: 200.0 mg/kg/injection, schedule: Q04DX002 (ip), vehicle: saline with Tween-80 97 % of control | dose: 400.0 mg/kg/injection, schedule: Q04DX002 (ip), vehicle: saline with Tween-80 100 % of control

COC(=O)C1=C(C(=O)OC)P(I)(c2ccccc2)(c2ccccc2)N(C)C1(c1ccccc1)c1ccccc1
inactive: [16] 100 % of control | [17] 100 % of control | [18] 90 % of control

c1cc2c(cn1)Sc1cnccc1N2
inactive: dose: 6.25 mg/kg/injection, schedule: Q01DX009 (ip), vehicle: distilled water + Tween-80 90 % of control | dose: 25.0 mg/kg/injection, schedule: Q01DX009 (ip), vehicle: distilled water + Tween-80 107 % of control

COc1ccc2ccc3ccc(OC)nc3c2n1
inactive: [4] 92 % of control | [5] 95 % of control | [13] 108 % of control

NC(=NCc1ccc2c(c1)OCO2)N[N+](=O)[O-]
inactive: [16] 104 % of control | [17] 100 % of control | [18] 96 % of control

COC(=O)C1(C)CCCC2(C)c3cc(OC)ccc3C3(CC12)SCCS3 (stereo unspecified)
inactive: dose: 10.0 mg/kg/injection, schedule: Q01DX009 (ip), vehicle: saline with Tween-80 95 % of control | dose: 20.0 mg/kg/injection, schedule: Q01DX009 (ip), vehicle: saline with Tween-80 99 % of control | dose: 40.0 mg/kg/injection, schedule: Q01DX009 (ip), vehicle: saline with Tween-80 103 % of control
